Molecular target: T1, Human autotaxin enzyme (Homo sapiens, UniProt Q13822)
T1 construct: purchased R&D System
Experiment: Evaluation of autotaxin inhibitor, 18:0 Lyso PC / choline assay (Test Example 2)
Assay type: biochemical
Settings: human autotaxin enzyme, 18:0 Lyso PC substrate, choline assay, room temperature 2 hours; read-out: Inhibitor activity (IC50)
Outline: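 Human autotaxin in 100 mM Tris-HCl pH 7.5, 150 mM NaCl, 5 mM MgCl2, 0.05% Triton X-100 reacted with 18:0 Lyso PC (200 μM stock) and test compound 2 h at room temperature. Released choline quantified via choline oxidase/peroxidase resorufin fluorescence (ex 531/em 598 nm, 20 min); inhibition vs no-compound and no-enzyme controls, concentration-response curve.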

SMILES	IC50
COC(=O)Nc1cc(Cl)ccc1-c1cc(=O)n(CC(=O)N2CCC(O)CC2)c(C)n1 [Compound I-0425]	10 to 100 nM
CC(C)(C)C(=O)Nc1cc(Cl)ccc1-c1cc(=O)n(Cc2cccc(C(=O)O)c2)cn1 [Compound I-0427]	10 to 100 nM
COC(=O)Nc1cc(C#N)ccc1-c1cc(=O)n(CC(=O)NCC2CNC(=O)C2)c(C)n1 (centres unmarked) [Compound I-0428]	10 to 100 nM
COC(=O)Nc1cc(C#N)ccc1-c1cc(=O)n(CC(=O)NCc2cc(=O)[nH]o2)c(C)n1 [Compound I-0429]	< 10 nM
COC(=O)Nc1cc(C#N)ccc1-c1cc(=O)n(CC(=O)NCC2CNC(=O)O2)c(C)n1 (centres unmarked) [Compound I-0430]	10 to 100 nM
Cc1nc(-c2ccc(Cl)cc2NC(=O)C2CC2)cc(=O)n1CC(=O)NCc1c[nH]nn1 [Compound I-0431]	10 to 100 nM
COC(=O)Nc1cc(Cl)ccc1-c1cc(=O)n(CC(=O)N2CCC(C#N)CC2)c(C)n1 [Compound I-0433]	10 to 100 nM
Cc1nc(-c2ccc(Cl)cc2NC(=O)C2CC2)cc(=O)n1CC(=O)NCC1(CO)CC1 [Compound I-0434]	10 to 100 nM
Cc1nc(-c2ccc(Cl)cc2NC(=O)C2CC2)cc(=O)n1CC(=O)N1CCC(O)CC1 [Compound I-0435]	10 to 100 nM
COC(=O)Nc1cc(Cl)ccc1-c1cc(=O)n(CC(=O)NCC2CCC(=O)N2)c(C)n1 (centres unmarked) [Compound I-0437]	10 to 100 nM
COC(=O)Nc1cc(Cl)ccc1-c1cc(=O)n(CC(=O)NCC2CNC(=O)C2)c(C)n1 (centres unmarked) [Compound I-0438]	10 to 100 nM
COC(=O)Nc1cc(Cl)ccc1-c1cc(=O)n(CC(=O)NCc2cc(=O)[nH]o2)c(C)n1 [Compound I-0439]	< 10 nM
COC(=O)Nc1cc(Cl)ccc1-c1cc(=O)n(CC(=O)NC2(C(=N)NO)CC2)c(C)n1 [Compound I-0440]	10 to 100 nM
COC(=O)Nc1cc(Cl)ccc1-c1cc(=O)n(CC(=O)N2CC(C(C)(C)O)C2)c(C)n1 [Compound I-0441]	100 to 1000 nM
COC(=O)Nc1cc(Cl)ccc1-c1cc(=O)n(CC(=O)NCC2CNC(=O)O2)c(C)n1 (centres unmarked) [Compound I-0442]	10 to 100 nM
O=C(Cn1cnc(-c2ccc(Cl)cc2)cc1=O)NCCNC(=O)c1ccc2nn[nH]c2c1 [Compound I-0443]	≥ 1000 nM
COC(=O)Nc1cc(C#N)ccc1-c1cc(=O)n(CC(=O)NC(C)(C)C(F)(F)F)c(C)n1 [Compound I-0444]	< 10 nM
COC(=O)Nc1cc(C#N)ccc1-c1cc(=O)n(CC(=O)N2CCC(C(N)=O)CC2)c(C)n1 [Compound I-0445]	< 10 nM
COC(=O)Nc1cc(C#N)ccc1-c1cc(=O)n(CC(=O)N2CCN(C(N)=O)CC2)c(C)n1 [Compound I-0446]	10 to 100 nM
CC(C)(C)C(=O)Nc1cc(Cl)ccc1-c1cc(=O)n(CC(=O)Nc2cnccc2O)cn1 [Compound I-0447]	100 to 1000 nM
Cc1nc(-c2ccc(Cl)cc2NC(=O)C2CC2)cc(=O)n1CC(=O)NCC1CCC(=O)N1 (centres unmarked) [Compound I-0450]	10 to 100 nM
Cc1nc(-c2ccc(Cl)cc2NC(=O)C2CC2)cc(=O)n1CC(=O)NCC1CNC(=O)C1 (centres unmarked) [Compound I-0451]	10 to 100 nM
Cc1nc(-c2ccc(Cl)cc2NC(=O)C2CC2)cc(=O)n1CC(=O)NCc1cc(=O)[nH]o1 [Compound I-0452]	10 to 100 nM

SMILES	IC50
Cc1nc(-c2ccc(Cl)cc2NC(=O)C2CC2)cc(=O)n1CC(=O)N1CC(C(C)(C)O)C1 [Compound I-0454]	100 to 1000 nM
COC(=O)Nc1cc(Cl)ccc1-c1cc(=O)n(CC(=O)NC2(C(F)(F)F)CC2)c(C)n1 [Compound I-0455]	10 to 100 nM
Cc1nc(-c2ccc(Cl)cc2NC(=O)C2CC2)cc(=O)n1CC(=O)NCC1CNC(=O)O1 (centres unmarked) [Compound I-0456]	10 to 100 nM
COC(=O)Nc1cc(Cl)ccc1-c1cc(=O)n(CC(=O)NC(C)(C)C(F)(F)F)c(C)n1 [Compound I-0457]	< 10 nM
COC(=O)Nc1cc(Cl)ccc1-c1cc(=O)n(CC(=O)N2CCC(C(N)=O)CC2)c(C)n1 [Compound I-0458]	< 10 nM
COC(=O)Nc1cc(Cl)ccc1-c1cc(=O)n(CC(=O)N2CCN(C(N)=O)CC2)c(C)n1 [Compound I-0459]	10 to 100 nM
O=C(Cn1cnc(-c2ccc(Cl)cc2)cc1=O)NCCCNC(=O)c1ccc2[nH]nnc2c1 [Compound I-0460]	≥ 1000 nM
Cc1nc(-c2ccc(Cl)cc2NC(=O)C2CC2)cc(=O)n1CC(=O)NC1(C(F)(F)F)CC1 [Compound I-0461]	10 to 100 nM
Cc1nc(-c2ccc(Cl)cc2NC(=O)C2CC2)cc(=O)n1CC(=O)NC(C)(C)C(F)(F)F [Compound I-0462]	10 to 100 nM
Cc1nc(-c2ccc(Cl)cc2NC(=O)C2CC2)cc(=O)n1CC(=O)N1CCC(C(N)=O)CC1 [Compound I-0463]	10 to 100 nM
COC(=O)Nc1cc(Cl)ccc1-c1cc(=O)n(CC(=O)NCCNS(C)(=O)=O)c(C)n1 [Compound I-0464]	10 to 100 nM
CNS(=O)(=O)CCNC(=O)Cn1c(C)nc(-c2ccc(Cl)cc2NC(=O)OC)cc1=O [Compound I-0465]	< 10 nM
COC(=O)Nc1cc(Cl)ccc1-c1cc(=O)n(CC(=O)NC2(c3nc(C)no3)CC2)c(C)n1 [Compound I-0467]	10 to 100 nM
CC(C)(C)C(=O)Nc1cc(Cl)ccc1-c1cc(=O)n(CC(=O)N2CCC(C(N)=O)CC2)cn1 [Compound I-0468]	10 to 100 nM
CC(C)(C)C(=O)Nc1cc(Cl)ccc1-c1cc(=O)n(CC(=O)NCC2CCC(=O)NC2)cn1 (centres unmarked) [Compound I-0469]	100 to 1000 nM
COC(=O)Nc1cc(Cl)ccc1-c1cc(=O)n(CC(=O)NC2(c3nc(=O)o[nH]3)CC2)c(C)n1 [Compound I-0470]	< 10 nM
COC(=O)Nc1cc(Cl)ccc1-c1cc(=O)n(CC(=O)N2CCC(C(=N)NO)CC2)c(C)n1 [Compound I-0471]	10 to 100 nM
O=C(Cn1cnc(-c2ccc(Cl)cc2)cc1=O)NCCCCNC(=O)c1ccc2nn[nH]c2c1 [Compound I-0472]	≥ 1000 nM
Cc1nc(-c2ccc(Cl)cc2NC(=O)C2CC2)cc(=O)n1CC(=O)NCCNS(C)(=O)=O [Compound I-0473]	10 to 100 nM
CNS(=O)(=O)CCNC(=O)Cn1c(C)nc(-c2ccc(Cl)cc2NC(=O)C2CC2)cc1=O [Compound I-0474]	10 to 100 nM
Cc1noc(C2(NC(=O)Cn3c(C)nc(-c4ccc(Cl)cc4NC(=O)C4CC4)cc3=O)CC2)n1 [Compound I-0475]	10 to 100 nM
O=C(Cn1cnc(-c2ccc(Cl)cc2)cc1=O)NCCCCCNC(=O)c1ccc2[nH]nnc2c1 [Compound I-0476]	≥ 1000 nM
CC(C)(C)NC(=O)c1cccc(Cn2cnc(-c3ccc(Cl)cc3NC(=O)C(C)(C)C)cc2=O)c1 [Compound I-0477]	100 to 1000 nM

SMILES	IC50
CC(C)(C)C(=O)Nc1cc(Cl)ccc1-c1cc(=O)n(Cc2cccc(C(=O)NCC(N)=O)c2)cn1 [Compound I-0478]	100 to 1000 nM
CNC(=O)NC1CCN(C(=O)Cn2c(C)nc(-c3ccc(Cl)cc3NC(=O)C3CC3)cc2=O)CC1 [Compound I-0479]	10 to 100 nM
COC(=O)Nc1cc(Cl)ccc1-c1cc(=O)n(CC(=O)NC2(c3ccc(F)cc3)COC2)c(C)n1 [Compound I-0480]	10 to 100 nM
COC(=O)Nc1cc(Cl)ccc1-c1cc(=O)n(CC(=O)N2CCN(CC(F)(F)F)CC2)c(C)n1 [Compound I-0481]	10 to 100 nM
COC(=O)Nc1cc(Cl)ccc1-c1cc(=O)n(CC(=O)N2CCC(c3nc(=O)o[nH]3)CC2)c(C)n1 [Compound I-0482]	< 10 nM
O=C(Cn1cnc(-c2ccc(Cl)cc2)cc1=O)NCCCCCCNC(=O)c1ccc2nn[nH]c2c1 [Compound I-0483]	100 to 1000 nM
Cc1nc(-c2ccc(Cl)cc2NC(=O)C2CC2)cc(=O)n1CC(=O)NC1(c2ccc(F)cc2)COC1 [Compound I-0484]	10 to 100 nM
Cc1nc(-c2ccc(Cl)cc2NC(=O)C2CC2)cc(=O)n1CC(=O)N1CCN(CC(F)(F)F)CC1 [Compound I-0485]	10 to 100 nM
CC(C)(C)C(=O)Nc1cc(Cl)ccc1-c1cc(=O)n(Cc2cccc(C(=O)NC(CO)CO)c2)cn1 [Compound I-0486]	100 to 1000 nM
CCNC(=O)N1CCC(NC(=O)Cn2cnc(-c3ccc(Cl)cc3NC(=O)C(C)(C)C)cc2=O)CC1 [Compound I-0487]	100 to 1000 nM
CC(C)(C)C(=O)Nc1cc(Cl)ccc1-c1cc(=O)n(Cc2cccc(C(=O)NCc3c[nH]nn3)c2)cn1 [Compound I-0488]	100 to 1000 nM
CC(C)(C)C(=O)Nc1cc(Cl)ccc1-c1cc(=O)n(Cc2cccc(C(=O)N3CCC(O)CC3)c2)cn1 [Compound I-0489]	10 to 100 nM
CCS(=O)(=O)N1CCN(C(=O)Cn2cnc(-c3ccc(Cl)cc3NC(=O)C(C)(C)C)cc2=O)CC1 [Compound I-0490]	100 to 1000 nM
CC(C)(C)C(=O)Nc1cc(Cl)ccc1-c1cc(=O)n(Cc2cccc(C(=O)Nc3cnccc3O)c2)cn1 [Compound I-0491]	100 to 1000 nM
CC(C)(C)C(=O)Nc1cc(Cl)ccc1-c1cc(=O)n(Cc2cccc(C(=O)Nc3cccnc3O)c2)cn1 [Compound I-0492]	10 to 100 nM
CC(C)(C)C(=O)Nc1cc(Cl)ccc1-c1cc(=O)n(Cc2cccc(C(=O)Nc3ccnc(O)c3)c2)cn1 [Compound I-0493]	≥ 1000 nM
COC(=O)Nc1cc(Cl)ccc1-c1cc(=O)n(CC(=O)N2CCC(CC(=O)OC(C)(C)C)CC2)c(C)n1 [Compound I-0494]	< 10 nM
CC(C)(C)C(=O)Nc1cc(Cl)ccc1-c1cc(=O)n(Cc2cccc(C(=O)N3CCC4(COC4)C3)c2)cn1 [Compound I-0495]	10 to 100 nM
Cc1nc(-c2ccc(Cl)cc2NC(=O)C2CC2)cc(=O)n1CC(=O)N1CCC(CC(=O)OC(C)(C)C)CC1 [Compound I-0496]	10 to 100 nM
CC(C)(C)C(=O)Nc1cc(Cl)ccc1-c1cc(=O)n(Cc2cccc(C(=O)N3CCC(C(N)=O)CC3)c2)cn1 [Compound I-0497]	10 to 100 nM
CC(C)(C)C(=O)Nc1cc(Cl)ccc1-c1cc(=O)n(Cc2cccc(C(=O)NCC3CCC(=O)NC3)c2)cn1 (centres unmarked) [Compound I-0498]	100 to 1000 nM
CC(=O)Nc1cc(Cl)ccc1-c1cc(=O)n(CC(=O)N2CCN(CCC(=O)c3ccc4[nH]c(=O)oc4c3)CC2)cn1 [Compound I-0499]	100 to 1000 nM

Source: patent publication US10183949B2, “Pyrimidinone derivative having autotaxin-inhibitory activity” (The University of Tokyo, priority 2014, dated 2019)
